{"source": "patent US7468439B2", "about": "“Alkylene bridged sultam compounds useful as modulators of nuclear hormone receptor function” (Bristol-Myers Squibb Company, priority 2006, dated 2008)", "key": {"[1]": {"assay": "stability of the isolated material on storage", "format": "physicochemical"}, "[2]": {"assay": "serum T and DHT concentrations after subcutaneous injection", "settings": "over 24 hours"}, "wild type AR": {"molecular_target": "wild type AR", "settings": "read-out: Kd for [^3H]-DHT; MDA 453 cells (wild type AR), saturation analysis, Scatchard", "protocol": "For the saturation analysis, the difference between the total binding and the non-specific binding, is defined as specific binding.\nTwo replicates are used for each sample. After 4 hours at 37° C., cells are washed, harvested, and counted as described above. […] The K1 values are determined by application of the Cheng-Prusoff equation to the IC50 values, where:\n[formula] After correcting for non-specific binding, IC50 values are determined. […] Murine Breast Cell Proliferation Assay"}, "AR": {"molecular_target": "T1, AR (Rattus norvegicus, UniProt P15207)", "T1 sequence (P15207 1-902)": "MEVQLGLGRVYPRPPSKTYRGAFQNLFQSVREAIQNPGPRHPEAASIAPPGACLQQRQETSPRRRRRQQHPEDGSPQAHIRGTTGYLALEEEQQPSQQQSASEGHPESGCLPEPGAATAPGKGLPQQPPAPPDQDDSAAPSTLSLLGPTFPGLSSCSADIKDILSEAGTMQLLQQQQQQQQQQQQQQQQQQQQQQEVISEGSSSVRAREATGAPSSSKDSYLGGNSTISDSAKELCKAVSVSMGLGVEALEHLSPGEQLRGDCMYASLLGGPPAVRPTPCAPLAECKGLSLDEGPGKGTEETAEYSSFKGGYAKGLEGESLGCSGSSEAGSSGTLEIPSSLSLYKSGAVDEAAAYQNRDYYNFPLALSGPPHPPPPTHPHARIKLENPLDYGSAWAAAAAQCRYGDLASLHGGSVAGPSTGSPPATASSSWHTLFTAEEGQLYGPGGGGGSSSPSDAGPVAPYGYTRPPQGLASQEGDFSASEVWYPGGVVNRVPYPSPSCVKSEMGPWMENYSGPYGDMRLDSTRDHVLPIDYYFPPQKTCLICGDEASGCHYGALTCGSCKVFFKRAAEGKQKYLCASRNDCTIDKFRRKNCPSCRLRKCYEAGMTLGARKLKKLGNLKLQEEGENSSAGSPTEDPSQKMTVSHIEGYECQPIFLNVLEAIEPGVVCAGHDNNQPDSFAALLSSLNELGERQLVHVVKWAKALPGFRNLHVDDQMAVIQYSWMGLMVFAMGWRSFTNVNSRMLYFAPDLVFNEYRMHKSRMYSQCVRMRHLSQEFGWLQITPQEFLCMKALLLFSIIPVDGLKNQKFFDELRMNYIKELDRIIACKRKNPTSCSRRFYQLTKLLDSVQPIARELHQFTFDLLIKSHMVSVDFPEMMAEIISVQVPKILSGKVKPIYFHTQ"}}, "data": [{"molecule": "N#Cc1ccc(N2C[C@H]3[C@H]4CC[C@H](C4)[C@@]3(COS(=O)(=O)C(F)(F)F)S2(=O)=O)cc1C(F)(F)F", "note": "[Example 61, ((1R,2R,6R,7S)-4-(4-cyano-3-(trifluoromethyl)phenyl)-3,3-dioxido-3-thia-4-azatricyclo[5.2.1.0^2,6]dec-2-yl)methyl trifluoromethanesulfonate]", "values": [{"measurement": "stability", "setting": "[1]; under an inert atmosphere, unpurified material", "result": "stable for several weeks under an inert atmosphere"}]}, {"molecule": "N#Cc1ccc(N2C[C@H]3[C@H]4CC[C@H](C4)[C@@]3(CN=[N+]=[N-])S2(=O)=O)cc1C(F)(F)F", "note": "[Example 65, 4-((1R,2R,6R,7S)-2-(azidomethyl)-3,3-dioxido-3-thia-4-azatricyclo[5.2.1.0^2,6]dec-4-yl)-2-(trifluoromethyl)benzonitrile]", "values": [{"measurement": "stability", "setting": "[1]; ambient conditions", "result": "prone to decomposition under ambient conditions"}]}, {"molecule": "C[C@]12CC[C@H]3[C@@H](CCC4=CC(=O)CC[C@@]43C)[C@@H]1CC[C@@H]2O", "note": "[T, testosterone]", "values": [{"measurement": "course of serum concentrations of T and DHT", "setting": "[2]", "result": "decline very rapidly"}]}, {"molecule": "tritiated dihydrotestosterone [[^3H]-DHT]", "values": [{"measurement": "Kd", "setting": "wild type AR", "result": 0.7, "unit": "nM"}]}, {"molecule": "CCC(=O)O[C@H]1CC[C@H]2[C@@H]3CCC4=CC(=O)CC[C@]4(C)[C@H]3CC[C@]12C", "note": "[TP, testosterone propionate]", "values": [{"measurement": "potency relative to free T", "setting": "AR; higher potency than free T", "result": "10-30 fold"}, {"measurement": "ED80", "setting": "AR; immature castrated rat model, weights of VP and SV", "result": 0.1, "unit": "mg"}, {"measurement": "EC50 (increase in organ weight, VP and SV)", "setting": "AR; immature castrated rats, dosing for 3 days", "result": "~0.03", "unit": "mg"}]}]}
